In brackets after ≈: the same amount, converted by molar mass. Read-outs that look alike come from different tables or passages of the source.

Holding throughout (format): cell-based
Assay [1] relates to Micrococcus flavus ATCC 10240. Nature of the assay: MIC against bacteria (Table I), strain (15). An excerpt:
(§1) Now, for illustrating the excellent pharmacological effects of the compounds of this invention, the values of MIC (γ/ml.) of the compounds against various bacteria are shown in Table 1, in which the compounds of this invention used are shown by example numbers.
(15) Micrococcus flavus ATCC 10240

The next assay relates to Proteus vulgaris 0X 19US. In words: MIC against bacteria (Table I), strain (2).
From the text: as §1
(2) Proteus vulgaris 0X 19US

Assay [2] deals with Proteus mirabilis IXM OM-19. In words: MIC against bacteria (Table I), strain (3).
From the text: as §1
(3) Proteus mirabilis IXM OM-19

The test system of assay [3] is Escherichia coli kauffmann 0-1. Nature of the assay: MIC against bacteria (Table I), strain (7).
From the text: as §1
(7) Escherichia coli kauffmann 0-1

In assay [4] the test system is Bacillus megatherium 10778. Nature of the assay: MIC against bacteria (Table I), strain (13).
From the text: as §1

Assay [5] relates to Staphylococcus aureus 209P. In words: MIC against bacteria (Table I), strain (16).
From the text: as §1
(16) Staphylococcus aureus 209P

A further assay has as its system Salmonella typhi H901 W. Nature of the assay: MIC against bacteria (Table I), strain (9).
From the text: as §1
(9) Salmonella typhi H901 W

A further assay relates to Proteus vulgaris OXK US. In words: MIC against bacteria (Table I), strain (1). To be noted: (1) Proteus vulgaris OXK US.
From the text: as §1
(1) Proteus vulgaris OXK US

Assay [6] relates to Pseudomonas aeruginosa ATCC 8689. Nature of the assay: MIC against bacteria (Table I), strain (4). To be noted: (4) Pseudomonas aeruginosa ATCC 8689.
From the text: as §1
(4) Pseudomonas aeruginosa ATCC 8689

For a further assay, the system named is Staphylococcus Onuma. In words: MIC against bacteria (Table I), strain (18). To be noted: (18) Staphylococcus Onuma.
From the text: as §1
(18) Staphylococcus Onuma

Assay [7] has as its system Klebsiella pneumoniae ATCC 10031. In words: MIC against bacteria (Table I), strain (8). Particulars: (8) Klebsiella pneumoniae ATCC 10031.
From the text: as §1
(8) Klebsiella pneumoniae ATCC 10031

Assay [8] deals with Shigella flexneri 2a 1675. Nature of the assay: MIC against bacteria (Table I), strain (11). To be noted: 2A1675.
From the text: as §1

Assay [9] has as its system Bacillus subtilis ATCC 6633. In words: MIC against bacteria (Table I), strain (14).
From the text: as §1
(14) Bacillus subtilis ATCC 6633

Assay [10] concerns Pseudomonas aeruginosa 99 (Gentamycin resistant). In words: MIC against bacteria (Table I), strain (5). Particulars: (5) Pseudomonas aeruginosa 99 (Gentamycin resistant).
From the text: as §1
(5) Pseudomonas aeruginosa 99 (Gentamycin resistant)

For the next assay, the system named is Shigella sonnei II 37148. Nature of the assay: MIC against bacteria (Table I), strain (12). Particulars: II37148.
From the text: as §1

In assay [11] the test system is Staphylococcus Shimanishi. In words: MIC against bacteria (Table I), strain (17).
From the text: as §1
(17) Staphylococcus Shimanishi

Assay [12] concerns Psuedomonas ovalis IMA 1002. Nature of the assay: MIC against bacteria (Table I), strain (6). To be noted: (6) Psuedomonas ovalis IMA 1002.
From the text: as §1
(6) Psuedomonas ovalis IMA 1002

The next assay relates to Salmonella enteritidis. In words: MIC against bacteria (Table I), strain (10).
From the text: as §1
(10) Salmonella enteritidis

Where [13] appears, read: 0X19US, (2) Proteus vulgaris 0X 19US, read-out: MIC.
[14] abbreviates: (13) Bacillus megatherium 10778, read-out: MIC.
The mark [15] stands for this setting: Salmonella enterica, ENTERITIDIS
The mark [16] stands for this setting: ATCC6633, (14) Bacillus subtilis ATCC 6633, read-out: MIC.

Turning to `Cc1cncc(C(=O)N[C@@H](C(=O)N[C@@H]2C(=O)N3C(C(=O)O)=C(CSc4nnc(SCC(=O)O)s4)CS[C@H]23)c2ccccc2)c1O` [Example 27, 7-[D-α-(4-hydroxy-3-methylpyridin-5-ylcarboxamido)-α-phenylacetamido]-3-(5-carboxymethylthio-1,3,4-thiadiazol-2-yl)thiomethyl-Δ^3-cephem-4-carboxylic acid], the MIC – broadly, the smallest concentration in the dilution series that meets the test's criterion for growth inhibition – is 6.25 µg/mL (≈ 9.07 µM) in [1] (ATCC10240, (15) Micrococcus flavus ATCC 10240, read-out: MIC); 0.78 µg/mL (≈ 1.13 µM) in the assay on Proteus vulgaris 0X 19US (Proteus vulgaris, 0X19US); 0.78 µg/mL (≈ 1.13 µM) in assay [2] (Proteus mirabilis, IXMOM19); 3.13 µg/mL (≈ 4.54 µM) in [3] (Escherichia coli); 0.78 µg/mL (≈ 1.13 µM) in [4] (Bacillus, 10778); 1.56 µg/mL (≈ 2.26 µM) in assay [5] (Staphylococcus aureus, 209P). Also, the MIC is 0.78 µg/mL (≈ 1.13 µM) with Salmonella typhi H901 W (Salmonella enterica, TYPHI); less than 0.09 µg/mL in the assay on Proteus vulgaris OXK US (read-out: MIC); 12.5 µg/mL (≈ 18.1 µM) in assay [6] (ATCC8689, read-out: MIC); 6.25 µg/mL (≈ 9.07 µM) with Staphylococcus Onuma (read-out: MIC); 1.56 µg/mL (≈ 2.26 µM) in assay [7] (ATCC10031, read-out: MIC); 0.78 µg/mL (≈ 1.13 µM) in [8] (Shigella flexneri). In addition, the MIC is 0.78 µg/mL (≈ 1.13 µM) in [9] (Bacillus subtilis, ATCC6633); 6.25 µg/mL (≈ 9.07 µM) in assay [10] (read-out: MIC); 3.13 µg/mL (≈ 4.54 µM) in the assay on Shigella sonnei II 37148 (Shigella sonnei); 6.25 µg/mL (≈ 9.07 µM) in assay [11] ((17) Staphylococcus Shimanishi, read-out: MIC); 25 µg/mL (≈ 36.3 µM) in [12] (read-out: MIC).

As for `O=C(O)CSc1nnc(SCC2=C(C(=O)O)N3C(=O)[C@@H](NC(=O)[C@H](NC(=O)c4csccc4=O)c4ccc(O)cc4)[C@H]3SC2)s1` [Example 31, 7-[D-α-(4-thiopyrone-3-carboxamido)-α-p-hydroxyphenylacetamido]-3-[5-carboxymethylthio-1,3,4-thiadiazol-2-yl]thiomethyl-Δ^3-cephem-4-carboxylic acid], the minimal inhibitory concentration (MIC) was 3.13 µg/mL (≈ 4.42 µM) in assay [1] (Micrococcus flavus, ATCC10240); 1.56 µg/mL (≈ 2.2 µM) in the assay with Proteus vulgaris 0X 19US (setting [13]); 0.39 µg/mL (≈ 0.551 µM) in [2] (IXMOM19, (3) Proteus mirabilis IXM OM-19, read-out: MIC); 3.13 µg/mL (≈ 4.42 µM) in [3] (Escherichia coli); 0.39 µg/mL (≈ 0.551 µM) in assay [4] (setting [14]); 0.39 µg/mL (≈ 0.551 µM) in [5] ((16) Staphylococcus aureus 209P, read-out: MIC). Further, the MIC worked out at 0.39 µg/mL (≈ 0.551 µM) in the assay on Salmonella typhi H901 W (Salmonella enterica, TYPHI); 6.25 µg/mL (≈ 8.83 µM) with Staphylococcus Onuma (read-out: MIC); 6.25 µg/mL (≈ 8.83 µM) in [7] (ATCC10031, read-out: MIC); 0.78 µg/mL (≈ 1.1 µM) in [8] (Shigella flexneri); 0.39 µg/mL (≈ 0.551 µM) with Salmonella enteritidis (setting [15]); 0.39 µg/mL (≈ 0.551 µM) in [9] (setting [16]). Moreover, the MIC in [10] (read-out: MIC) came out at 50 µg/mL (≈ 70.6 µM); in the assay on Shigella sonnei II 37148 (Shigella sonnei), 3.13 µg/mL (≈ 4.42 µM); in assay [11] (Staphylococcus) it was 3.13 µg/mL (≈ 4.42 µM); in [12] (read-out: MIC), 50 µg/mL (≈ 70.6 µM).

With `O=C(O)CSc1nnc2sc(SCC3=C(C(=O)O)N4C(=O)C(NC(=O)[C@H](NC(=O)c5cnccc5O)c5ccccc5)[C@H]4SC3)nn12` (stereo partly drawn) [Example 34, 7-[D-α-(4-hydroxynicotinoyl-amido)-α-phenylacetamido]-3-(5-carboxymethylthio-[1,2,4]-triazolo-[3,4-b]-[1,3,4]-thiadiazol-2yl)thiomethyl-Δ^3-cephem-4-carboxylic acid], the MIC stood at 12.5 µg/mL (≈ 17.5 µM) in assay [1] ((15) Micrococcus flavus ATCC 10240); 0.78 µg/mL (≈ 1.09 µM) in the assay with Proteus vulgaris 0X 19US ((2) Proteus vulgaris 0X 19US); 0.78 µg/mL (≈ 1.09 µM) in assay [2] ((3) Proteus mirabilis IXM OM-19); 12.5 µg/mL (≈ 17.5 µM) in [3] ((7) Escherichia coli kauffmann 0-1); 0.78 µg/mL (≈ 1.09 µM) in assay [4] ((13) Bacillus megatherium 10778); 3.13 µg/mL (≈ 4.38 µM) in [5] ((16) Staphylococcus aureus 209P). For the same compound, the MIC against Salmonella typhi H901 W ((9) Salmonella typhi H901 W) is 6.25 µg/mL (≈ 8.74 µM); against Proteus vulgaris OXK US it was less than 0.09 µg/mL; in assay [6], 25 µg/mL (≈ 35 µM); against Staphylococcus Onuma it was 25 µg/mL (≈ 35 µM); in assay [7], 12.5 µg/mL (≈ 17.5 µM); with Salmonella enteritidis ((10) Salmonella enteritidis), 1.56 µg/mL (≈ 2.18 µM). Further, the MIC stood at 1.56 µg/mL (≈ 2.18 µM) in assay [9] ((14) Bacillus subtilis ATCC 6633), 12.5 µg/mL (≈ 17.5 µM) in [10], 12.5 µg/mL (≈ 17.5 µM) in assay [11] ((17) Staphylococcus Shimanishi) and 25 µg/mL (≈ 35 µM) in [12].

In the case of `COc1cc(C)ncc1C(=O)N[C@@H](C(=O)N[C@@H]1C(=O)N2C(C(=O)O)=C(CSc3nnc(SCC(=O)O)s3)CS[C@H]12)c1ccccc1` [Example 37, 7[-α-(4-methoxy-6-methylnicotinoylamido)-α-phenylacetamido]-3-(5-carboxymethyl-thio-1,3,4-thiadiazol-2yl)-thiomethyl-Δ^3-cephem-4-carboxylic acid], the MIC came out at 6.25 µg/mL (≈ 8.89 µM) in assay [1] (Micrococcus flavus, ATCC10240); 25 µg/mL (≈ 35.6 µM) in the assay on Proteus vulgaris 0X 19US (setting [13]); 3.13 µg/mL (≈ 4.45 µM) in assay [2] (Proteus mirabilis, IXMOM19); 6.25 µg/mL (≈ 8.89 µM) in [3] (Escherichia coli); 1.56 µg/mL (≈ 2.22 µM) in assay [4] (setting [14]); 1.56 µg/mL (≈ 2.22 µM) in assay [5] (Staphylococcus aureus, 209P). The MIC in the assay on Salmonella typhi H901 W (Salmonella enterica, TYPHI) was found to be 6.25 µg/mL (≈ 8.89 µM); in the assay with Staphylococcus Onuma (read-out: MIC) it was 12.5 µg/mL (≈ 17.8 µM); in assay [7] (ATCC10031, read-out: MIC), 12.5 µg/mL (≈ 17.8 µM); in [8] ((11) Shigella flexneri 2a 1675, read-out: MIC), 3.13 µg/mL (≈ 4.45 µM); in the assay with Salmonella enteritidis (setting [15]) it was 3.13 µg/mL (≈ 4.45 µM); in [9] (setting [16]), 0.78 µg/mL (≈ 1.11 µM). In addition, the MIC in assay [10] (read-out: MIC) turned out to be 12.5 µg/mL (≈ 17.8 µM); in the assay on Shigella sonnei II 37148 ((12) Shigella sonnei II 37148, read-out: MIC), 6.25 µg/mL (≈ 8.89 µM); in assay [11] (Staphylococcus), 6.25 µg/mL (≈ 8.89 µM); in assay [12] (read-out: MIC), 25 µg/mL (≈ 35.6 µM).
